Source: ChEMBL document CHEMBL1201861, “Genomics of Drug Sensitity in Cancer screening data, Wellcome Trust Sanger Institute”

Columns and labels:
Assay in all cases: cells
BT-474 = format: functional, cell-based, Homo sapiens; settings: Homo sapiens, BT-474
Description: SANGER: Inhibition of human BT-474 cell growth in a cell viability assay.

SW756 = format: functional, cell-based, Homo sapiens; settings: Homo sapiens, SW756;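 note: growth inhibition of human SW756 cells, read out with a cell viability assay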
Description: SANGER: Inhibition of human SW756 cell growth in a cell viability assay.

HCC1419 = format: functional, cell-based, Homo sapiens; settings: Homo sapiens, HCC1419;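 note: growth inhibition of human HCC1419 cells, read out as cell viability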
Description: SANGER: Inhibition of human HCC1419 cell growth in a cell viability assay.

HMV-2 cell line = format: functional, cell-based, Homo sapiens; settings: Homo sapiens, HMV-2;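 note: growth inhibition of HMV-II cells, read out with a cell viability assay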
Description: SANGER: Inhibition of human HMV-II cell growth in a cell viability assay.

A101D = format: functional, cell-based, Homo sapiens; settings: Homo sapiens, A101D;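 note: growth inhibition of the cell line, measured with a viability assay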
Description: SANGER: Inhibition of human A101D cell growth in a cell viability assay.

C-33-A = format: functional, cell-based, Homo sapiens; settings: Homo sapiens, C-33-A;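 note: cell viability assay measuring growth inhibition of C-33-A cells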
Description: SANGER: Inhibition of human C-33-A cell growth in a cell viability assay.

Ramos-2G6-4C10 = format: functional, cell-based; settings: Homo sapiens;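 note: growth inhibition of the cell line, measured by a cell viability read-out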
Description: SANGER: Inhibition of human Ramos-2G6-4C10 cell growth in a cell viability assay.

SCC-9 = format: functional, cell-based, Homo sapiens; settings: Homo sapiens, SCC-9;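 note: Read-out is a cell viability assay, with values giving inhibition of cell growth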
Description: SANGER: Inhibition of human SCC-9 cell growth in a cell viability assay.

UMC-11 = format: functional, cell-based, Homo sapiens; settings: Homo sapiens, UMC-11;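 note: growth inhibition of UMC-11 cells, read out with a cell viability assay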
Description: SANGER: Inhibition of human UMC-11 cell growth in a cell viability assay.

KNS-42 = format: functional, cell-based, Homo sapiens; settings: Homo sapiens, KNS-42;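 note: growth inhibition of KNS-42 cells, read out with a cell viability assay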
Description: SANGER: Inhibition of human KNS-42 cell growth in a cell viability assay.

U-251 = format: functional, cell-based, Homo sapiens; settings: Homo sapiens, U-251;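 note: growth inhibition of human U-251 cells, read out through a cell viability assay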
Description: SANGER: Inhibition of human U251 cell growth in a cell viability assay.

SK-UT-1 = format: functional, cell-based, Homo sapiens; settings: Homo sapiens, SK-UT-1;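 note: growth inhibition of SK-UT-1 cells, measured by a cell viability assay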
Description: SANGER: Inhibition of human SK-UT-1 cell growth in a cell viability assay.

OMC-1 = format: functional, cell-based, Homo sapiens; settings: Homo sapiens, OMC-1;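 note: growth inhibition of the OMC-1 cell line, measured by a cell viability assay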
Description: SANGER: Inhibition of human OMC-1 cell growth in a cell viability assay.

SK-NEP-1 = format: functional, cell-based; settings: Homo sapiens;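 note: growth inhibition of human SK-NEP-1 cells, read out by a cell viability assay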
Description: SANGER: Inhibition of human SK-NEP-1 cell growth in a cell viability assay.

SCC-4 = format: functional, cell-based, Homo sapiens; settings: Homo sapiens, SCC-4;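 note: growth inhibition of human SCC-4 cells, read out as cell viability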
Description: SANGER: Inhibition of human SCC-4 cell growth in a cell viability assay.

CaR-1 = format: functional, cell-based, Homo sapiens; settings: Homo sapiens, CaR-1;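 note: growth inhibition of human CaR-1 cancer cells, read out with a cell viability assay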
Description: SANGER: Inhibition of human CaR-1 cell growth in a cell viability assay.

KYSE-450 = format: functional, cell-based; settings: Homo sapiens;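 note: cell growth inhibition measured by a viability assay in human KYSE-450 cells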
Description: SANGER: Inhibition of human KYSE-450 cell growth in a cell viability assay.

SKG-IIIa = format: functional, cell-based, Homo sapiens; settings: Homo sapiens, SKG-IIIa;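 note: cell growth inhibition, read out with a cell viability assay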
Description: SANGER: Inhibition of human SKG-IIIa cell growth in a cell viability assay.

HT1197 = format: functional, cell-based, Homo sapiens, HT-1197; settings: Homo sapiens, HT1197
Description: SANGER: Inhibition of human HT-1197 cell growth in a cell viability assay.

U-266 = format: functional, cell-based; settings: Homo sapiens
Description: SANGER: Inhibition of human U-266 cell growth in a cell viability assay.

T-24 = format: functional, cell-based, Homo sapiens; settings: Homo sapiens, T-24;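 note: growth inhibition of T-24 cells, read out with a cell viability assay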
Description: SANGER: Inhibition of human T-24 cell growth in a cell viability assay.

SK-MES-1 = format: functional, cell-based, Homo sapiens; settings: Homo sapiens, SK-MES-1;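 note: growth inhibition of human SK-MES-1 cells, read out with a cell viability assay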
Description: SANGER: Inhibition of human SK-MES-1 cell growth in a cell viability assay.

SW1710 = format: functional, cell-based, Homo sapiens; settings: Homo sapiens, SW1710;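 note: growth inhibition of SW1710 cells, determined with a cell viability assay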
Description: SANGER: Inhibition of human SW1710 cell growth in a cell viability assay.

A-427 = format: functional, cell-based, Homo sapiens; settings: Homo sapiens, A-427;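 note: growth inhibition of human A-427 cells, read out by a cell viability assay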
Description: SANGER: Inhibition of human A427 cell growth in a cell viability assay.

MeWo = format: functional, cell-based, Homo sapiens; settings: Homo sapiens, MeWo;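 note: growth inhibition of MeWo cells, determined by a cell viability readout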
Description: SANGER: Inhibition of human Mewo cell growth in a cell viability assay.

BXPC-3 = format: functional, cell-based, Homo sapiens; settings: Homo sapiens, BXPC-3;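 note: growth inhibition of human BxPC-3 cells, read out by a cell viability assay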
Description: SANGER: Inhibition of human BxPC-3 cell growth in a cell viability assay.

A2780 = format: functional, cell-based, Homo sapiens; settings: Homo sapiens, A2780;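 note: growth inhibition of A2780 cells, read out with a cell viability assay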
Description: SANGER: Inhibition of human A2780 cell growth in a cell viability assay.

PC-14 = format: functional, cell-based, Homo sapiens; settings: Homo sapiens, PC-14;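 note: cell viability assay measuring inhibition of PC-14 cell growth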
Description: SANGER: Inhibition of human PC-14 cell growth in a cell viability assay.

NCI-H1755 = format: functional, cell-based, Homo sapiens; settings: Homo sapiens, NCI-H1755;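 note: cell viability readout used to measure growth inhibition of NCI-H1755 cells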
Description: SANGER: Inhibition of human NCI-H1755 cell growth in a cell viability assay.

HL-60 = format: functional, cell-based; settings: Homo sapiens;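 note: growth inhibition of human HL-60 cells, read out with a cell viability assay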
Description: SANGER: Inhibition of human HL-60 cell growth in a cell viability assay.

LCLC-103H cell line = format: functional, cell-based, Homo sapiens; settings: Homo sapiens, LCLC-103H
Description: SANGER: Inhibition of human LCLC-103H cell growth in a cell viability assay.

HOP-62 = format: functional, cell-based, Homo sapiens; settings: Homo sapiens, HOP-62;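 note: cell growth inhibition determined with a viability assay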
Description: SANGER: Inhibition of human HOP-62 cell growth in a cell viability assay.

HCC1806 = format: functional, cell-based, Homo sapiens; settings: Homo sapiens, HCC1806;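 note: growth inhibition of the cancer cell line, determined with a cell viability assay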
Description: SANGER: Inhibition of human HCC1806 cell growth in a cell viability assay.

GP5d = format: functional, cell-based, Homo sapiens; settings: Homo sapiens, GP5d;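 note: growth inhibition of human GP5d cells, read out with a cell viability assay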
Description: SANGER: Inhibition of human GP5d cell growth in a cell viability assay.

NCI-H1838 = format: functional, cell-based, Homo sapiens; settings: Homo sapiens, NCI-H1838;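 note: growth inhibition of NCI-H1838 cells, determined with a cell viability readout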
Description: SANGER: Inhibition of human NCI-H1838 cell growth in a cell viability assay.

KP-4 = format: functional, cell-based, Homo sapiens; settings: Homo sapiens, KP-4;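 note: human KP-4 cells, with growth inhibition read out through a cell viability assay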
Description: SANGER: Inhibition of human KP-4 cell growth in a cell viability assay.

H4 = format: functional, cell-based; settings: Homo sapiens
Description: SANGER: Inhibition of human H4 cell growth in a cell viability assay.

HCC1569 = format: functional, cell-based, Homo sapiens; settings: Homo sapiens, HCC1569;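 note: growth inhibition of human HCC1569 cells, read out with a cell viability assay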
Description: SANGER: Inhibition of human HCC1569 cell growth in a cell viability assay.

NB10 = format: functional, cell-based, Homo sapiens; settings: Homo sapiens, NB10;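 note: growth inhibition of NB10 cells, read out by a cell viability assay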
Description: SANGER: Inhibition of human NB10 cell growth in a cell viability assay.

CWR22R = format: functional, cell-based, Homo sapiens; settings: Homo sapiens, 22Rv1;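 note: growth inhibition of 22Rv1 cells, read out with a cell viability assay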
Description: SANGER: Inhibition of human 22RV1 cell growth in a cell viability assay.

DOHH-2 = format: functional, cell-based; settings: Homo sapiens;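 note: growth inhibition of human DOHH-2 cells, read out with a cell viability assay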
Description: SANGER: Inhibition of human DOHH-2 cell growth in a cell viability assay.

OVCAR-4 = format: functional, cell-based, Homo sapiens; settings: Homo sapiens, OVCAR-4;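 note: growth inhibition of human OVCAR-4 cells, measured with a cell viability assay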
Description: SANGER: Inhibition of human OVCAR-4 cell growth in a cell viability assay.

NCI-H520 = format: functional, cell-based, Homo sapiens; settings: Homo sapiens, NCI-H520;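 note: growth inhibition of NCI-H520 cells, measured by a cell viability assay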
Description: SANGER: Inhibition of human NCI-H520 cell growth in a cell viability assay.

BE-13 = format: functional, cell-based; settings: Homo sapiens;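 note: growth inhibition of human BE-13 cells, measured with a cell viability assay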
Description: SANGER: Inhibition of human BE-13 cell growth in a cell viability assay.

KP-N-YN = format: functional, cell-based; settings: Homo sapiens;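 note: growth inhibition of KP-N-YN cells, read out with a cell viability assay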
Description: SANGER: Inhibition of human KP-N-YN cell growth in a cell viability assay.

ES3 = format: functional, cell-based, Homo sapiens; settings: Homo sapiens, ES3;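 note: growth inhibition of ES3 cells, read out with a cell viability assay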
Description: SANGER: Inhibition of human ES3 cell growth in a cell viability assay.

MHH-ES-1 = format: functional, cell-based, Homo sapiens; settings: Homo sapiens, MHH-ES-1;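 note: cell growth inhibition measured by a cell viability assay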
Description: SANGER: Inhibition of human MHH-ES-1 cell growth in a cell viability assay.

ChaGo-K-1 = format: functional, cell-based; settings: Homo sapiens;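 note: growth inhibition of ChaGo-K-1 cells, read out with a cell viability assay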
Description: SANGER: Inhibition of human ChaGo-K-1 cell growth in a cell viability assay.

Calu-3 = format: functional, cell-based, Homo sapiens; settings: Homo sapiens, Calu-3;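 note: growth inhibition of human Calu-3 cells, determined with a cell viability assay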
Description: SANGER: Inhibition of human Calu-3 cell growth in a cell viability assay.

LK-2 = format: functional, cell-based, Homo sapiens; settings: Homo sapiens, LK-2;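 note: growth inhibition of LK-2 cells, read out with a viability assay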
Description: SANGER: Inhibition of human LK-2 cell growth in a cell viability assay.

LS-1034 = format: functional, cell-based, Homo sapiens; settings: Homo sapiens, LS-1034
Description: SANGER: Inhibition of human LS-1034 cell growth in a cell viability assay.

For `CC(=O)O[C@@]12CO[C@@H]1C[C@H](O)[C@@]1(C)C(=O)[C@H](O)C3=C(C)[C@@H](OC(=O)[C@H](O)[C@@H](NC(=O)OC(C)(C)C)c4ccccc4)C[C@@](O)([C@@H](OC(=O)c4ccccc4)[C@H]21)C3(C)C` [DOCETAXEL], the IC50 (BT-474) was over 10 nM, the IC50 (SW756) was 2.16 nM and the IC50 (HCC1419) was over 10 nM. The IC50 (HMV-2 cell line) was over 10 nM, the IC50 (A101D) was over 10 nM and the IC50 (C-33-A) was 2.66 nM. It also gave an IC50 (Ramos-2G6-4C10) of over 10 nM, an IC50 (SCC-9) of 1.32 nM and an IC50 (UMC-11) of over 10 nM. For the same compound, the IC50 (KNS-42) was 4.12 nM, the IC50 (U-251) was 2.5 nM and the IC50 (SK-UT-1) was 2.26 nM. The IC50 (OMC-1) was 9.06 nM, the IC50 (SK-NEP-1) was 1.76 nM and the IC50 (SCC-4) was 0.739 nM. It also gave an IC50 (CaR-1) of 3.27 nM, an IC50 (KYSE-450) of 1.43 nM and an IC50 (SKG-IIIa) of 2.86 nM. For the same compound, the IC50 (HT1197) was over 10 nM, the IC50 (U-266) was 3.48 nM and the IC50 (T-24) was over 10 nM. For the same compound, the IC50 (SK-MES-1) was 2.33 nM, the IC50 (SW1710) was 0.466 nM and the IC50 (A-427) was 1.48 nM. It also gave an IC50 (MeWo) of 5.05 nM, an IC50 (BXPC-3) of 2.51 nM and an IC50 (A2780) of 3.35 nM. For the same compound, the IC50 (PC-14) was 2.09 nM, the IC50 (NCI-H1755) was 6.24 nM and the IC50 (HL-60) was 3.59 nM. It also gave an IC50 (LCLC-103H cell line) of 2.93 nM, an IC50 (HOP-62) of over 10 nM and an IC50 (HCC1806) of 1.18 nM. The IC50 (GP5d) was 2.96 nM, the IC50 (NCI-H1838) was over 10 nM and the IC50 (KP-4) was 1.56 nM. The IC50 (H4) was 1.96 nM, the IC50 (HCC1569) was over 10 nM and the IC50 (NB10) was over 10 nM. For the same compound, the IC50 (CWR22R) was 3.15 nM, the IC50 (DOHH-2) was 6.3 nM and the IC50 (OVCAR-4) was 5.86 nM. It also gave an IC50 (NCI-H520) of 3.72 nM, an IC50 (BE-13) of 3.93 nM and an IC50 (KP-N-YN) of over 10 nM. It also gave an IC50 (ES3) of 2.77 nM, an IC50 (MHH-ES-1) of 0.7 nM and an IC50 (ChaGo-K-1) of 9.88 nM. The IC50 (Calu-3) was over 10 nM, the IC50 (LK-2) was 1.21 nM and the IC50 (LS-1034) was over 10 nM.

In the case of `O=c1cc(-c2cccc3c2Sc2ccccc2S3)oc(N2CCOCC2)c1` [KU-55933], the IC50 (BT-474) is reported as over 10000 nM, the IC50 (SW756) is reported as over 10000 nM and the IC50 (HCC1419) is reported as over 10000 nM. The IC50 (HMV-2 cell line) was over 10000 nM, the IC50 (A101D) was over 10000 nM and the IC50 (C-33-A) was over 10000 nM. It also gave an IC50 (Ramos-2G6-4C10) of over 10000 nM, an IC50 (SCC-9) of over 10000 nM and an IC50 (UMC-11) of over 10000 nM. It also gave an IC50 (KNS-42) of over 10000 nM, an IC50 (U-251) of over 10000 nM and an IC50 (SK-UT-1) of over 10000 nM. It also gave an IC50 (OMC-1) of over 10000 nM, an IC50 (SK-NEP-1) of over 10000 nM and an IC50 (SCC-4) of over 10000 nM. The IC50 (CaR-1) was over 10000 nM, the IC50 (KYSE-450) was over 10000 nM and the IC50 (SKG-IIIa) was over 10000 nM. It also gave an IC50 (HT1197) of over 10000 nM, an IC50 (U-266) of over 10000 nM and an IC50 (T-24) of over 10000 nM. For the same compound, the IC50 (SK-MES-1) was over 10000 nM, the IC50 (SW1710) was over 10000 nM and the IC50 (A-427) was over 10000 nM. It also gave an IC50 (MeWo) of over 10000 nM, an IC50 (BXPC-3) of over 10000 nM and an IC50 (A2780) of over 10000 nM. The IC50 (PC-14) was over 10000 nM, the IC50 (NCI-H1755) was over 10000 nM and the IC50 (HL-60) was over 10000 nM. The IC50 (LCLC-103H cell line) was over 10000 nM, the IC50 (HOP-62) was over 10000 nM and the IC50 (HCC1806) was over 10000 nM. For the same compound, the IC50 (GP5d) was over 10000 nM, the IC50 (NCI-H1838) was over 10000 nM and the IC50 (KP-4; read-out: IC50) was over 10000 nM. For the same compound, the IC50 (H4) was over 10000 nM, the IC50 (HCC1569) was over 10000 nM and the IC50 (NB10) was over 10000 nM. For the same compound, the IC50 (CWR22R) was over 10000 nM, the IC50 (DOHH-2) was over 10000 nM and the IC50 (OVCAR-4) was over 10000 nM. The IC50 (NCI-H520) was over 10000 nM, the IC50 (BE-13) was over 10000 nM and the IC50 (KP-N-YN) was over 10000 nM. For the same compound, the IC50 (ES3) was over 10000 nM, the IC50 (MHH-ES-1) was over 10000 nM and the IC50 (ChaGo-K-1) was over 10000 nM. For the same compound, the IC50 (Calu-3) was over 10000 nM, the IC50 (LK-2) was over 10000 nM and the IC50 (LS-1034) was over 10000 nM.
